The subject of one assay is BALB/c mice. As to the kind of experiment: ELISA for anti-peptide antibody response in sera of immunized BALB/c mice. Type of assay: in vivo. The settings on record: high molecular weight (multimer) forms. Background: An ELISA detects its analyte on a solid surface through an enzyme-linked reagent.
Assay [1] concerns native HIV envelope protein gp160. The following applies: disulfide (di-Cys) polymeric form. The source says: FIG. 6 contains two panels of graphs that illustrate B6C3 F1 mouse PLN cell proliferation by ^3H-TdR incorporation as described before using varying concentrations of peptide multimer and gp120 as antigens. […] PPD and unrelated peptide were used as controls. A further discussion relating to FIGS. 6-8 is found hereinafter.
The cells were harvested onto filter strips and ^3H-TdR incorporation was monitored.
T cell proliferation measured by ^3H-TdR incorporation, was also similarly assayed as a function of the T cell antigen concentration, using various amounts of native gp120 or gp160 as one control, and PPD as another control. PLN from B6C3 F1 mice were used in these studies.

Entries after “also recorded” stand apart in the source; their conditions may differ.

On to FLGFLGAAGSTMGAASLTLTVQANQ [Peptide 63], for which the “anti-peptide antibody response (in words)” value in the assay with BALB/c mice was “very low to negligible amounts of anti-peptide antibodies; also recorded: do not stimulate anti-peptide antibody production”. Also, the “T cell response directed against the corresponding peptide and native HIV envelope protein gp160” value (from here on “T cell response directed”) in assay [1] was “strong T cell response”.

As for “GTGPCTNVSTVQC [Peptide 116, gp160 CR-2, residues 240-252]”, the “anti-peptide antibody response (in words)” value in the assay on BALB/c mice was “very low to negligible amounts of anti-peptide antibodies”.

Consider “LWDQSLKPCVKLT [Peptide 111, gp160 CR-1, residues 118-131]”, for which the “anti-peptide antibody response (in words)” value with BALB/c mice is on record as “very low to negligible amounts of anti-peptide antibodies”.

SVITQACSKVSFE [Peptide 113]: the “anti-peptide antibody response (in words)” value in the assay with BALB/c mice is “very low to negligible amounts of anti-peptide antibodies; also recorded: do not stimulate anti-peptide antibody production”. Further, the “T cell response directed” value in assay [1] is reported as “strong T cell response”.

On to VYYGVPVWKEA [Peptide 104], for which the “anti-peptide antibody response (in words)” value in the assay on BALB/c mice is recorded as “very low to negligible amounts of anti-peptide antibodies; also recorded: do not stimulate anti-peptide antibody production”. Further, the “T cell response directed” value in assay [1] is “strong T cell response”.

For the sequence YLRDQQLLGIWGC [Peptide 61], the “anti-peptide antibody response (in words)” value with BALB/c mice is reported as “very low to negligible amounts of anti-peptide antibodies; also recorded: do not stimulate anti-peptide antibody production”. Also, the “T cell response directed” value in assay [1] was “strong T cell response”.

(Values after patent US20020151678A1, “Prophylaxis and therapy of acquired immunodeficiency syndrome” (Board of Regents, The University of Texas System., priority 1987, published 2002).)
